Twelve compounds from patent US5273989A, “3,5-disubstituted 2-isoxazolines and isoxazoles, agents containing them and their use” (Hoechst Aktiengesellschaft, priority 1990, dated 1993) can be followed below.

Structures can show the parent of a compound that is named as a salt. Where two headings read alike, the source gives them in different places. Bounds are passed on as bounds.

For data set [1], the system named is high affinity 3H-D-aspartate absorption, synaptic vesicles (synaptosomes) from rat cortex. The data set is described as follows: "High affinity" absorption of 3H-aspartate in a vesicle preparation from rat brain. Format: biochemical. The settings on record: relative to control values (100%). As for the experimental part: 1. "High affinity" absorption of ^3 H-aspartate in a vesicle preparation from rat brain.
Test principle: Fresh synaptic vesicles (synaptosomes) from rat cortex are incubated with buffer solution and ^3 H-D-aspartate and ^3 H-D-aspartate in the vesicles is measured. Preparations which in comparison to control synaptosomes increase the high affinity ^3 H-D-aspartate absorption and those which prevent the loss of ^3 H-D-aspartate by reliberation are regarded as particularly interesting.
Experimental protocol: The experiments for ^3 H-D-aspartate absorption were carried out by the method of Anand et al. (Biochem. Pharmacol., 35 (1986), 1055-1057). The synaptic vesicles were dissected out of cerebral cortex from male Sprague-Dawley rats. The preparations were tested at four concentrations as double samples in parallel with control samples containing buffer. The incubation medium (pH 7.4) contains: 1.2 mM KH2 PO4, 5 mM KCl, 5 mM pyruvate, 1.2 mM glucose, 1.2 mM MgCl2, 114 mM NaCl, 25 mM NaHCO3. For the non-specific ^3 H-D-aspartate absorption, NaCl was replaced by 114 mM choline chloride and NaHCO3 by 25 mM KHCO3. An aliquot of the vesicle suspension (about 25 μg/ml of test solution) was added to the test sample which was temperature controlled at 37° C. and aerated with Carbogen (5% CO2, 95% O2) and preincubated for 2 minutes. The three minutes incubation for the amino acid absorption was started by addition of 50 μl of ^3 H-D-aspartate (specific activity 25 Ci/mmol, 10 pmol/ml of test solution). The vesicles were separated from the incubation medium by filtration and additional washing of the adhering labeled amino acids using a Titertek cell harvester (Flow Laboratories, Meckenheim). The ^3 H-D-aspartate absorption was measured by means of a liquid scintillation counter (Canberra-Packard, Model 1500, Frankfurt).
The preparation activity is indicated in percent of the specific ^3 H-D-aspartate absorption, relative to control values (100%), in Table 3. Adenosine triphosphate (ATP) was used for comparison as the standard substance (see Table 3) and at 1 mM caused a 35% increase in the ^3 H-D-aspartate absorption.

In data set [2] the test system is NMDA-induced cramps. Briefly: Inhibition of NMDA-induced cramps in the mouse. The class given is in vivo. The settings on record: po, 1 h; for inhibition in vivo at 0.3 mg/kg: 0.3 mg/kg p.o. The method, then: 4. Inhibition of NMDA-induced-cramps in the mouse
The examples listed below show neuroprotective activity in that they antagonize the cramps induced by NMDA (N-methyl-(D)-aspartate). To this end, intravenous injections of 20-30 mg/kg of NMDA are carried out on a male NMRI (Naval Medical Research Institute) mice of 22-24 g body weight, which leads to stereotypes, clonic cramps and in the majority of cases to mortality. In order to investigate an NMDA-antagonist activity of the test substances, they are administered orally one hour before NMDA. The animals are then observed for the abovementioned symptoms for up to 60 min. The number of animals with clonic cramps and the incidence of mortality, expressed in percent change compared to the control group, is regarded as the evaluation criterion.

Data set [3] concerns NMDA-stimulated 3H-acetylcholine release, striatum sections. The data set is described as follows: Inhibition of NMDA-stimulated 3H-acetylcholine release from striatum sections of the rat brain. The class given is cell-based. As for the experimental part:
2. Inhibition of ^3 H-acetylcholine release from striatum sections of the rat brain
Test principle: For the test, fresh striatum sections from rat brain were rinsed with buffer solution in a special chamber and the release of the tritium-labeled acetylcholine was measured after stimulation with NMDA. Preparations having NMDA-antagonist action inhibit acetylcholine release.
Experimental protocol: The superfusion experiments were carried out by the method of Wichman et al. (Naunyn-Schmied. Arch. Pharmacol., 338 (1988), 623-631). Rat brain sections, 0.5 mm thick, were preincubated for 30 min in 2 ml of incubation medium which contains 0.1 μmol/l of ^3 H-choline having a specific activity of 80 Ci/mmol. In each of 6 superfusion chambers, a section was transferred and superfused for 90 min at a rate of 1.5 ml/min. 2 min fraction of the superfusate were continuously collected. Each section was superfused twice with 25 μmol/l of NMDA of two minutes each time in order to stimulate the release of acetylcholine. The first stimulus (S1) takes place between the 54th and the 56th minute and the 2nd stimulus (S2) between the 76th and 78th minute. The incubation medium contained, in mmol/l: NaCl 118, KCl 4.8, CaCl2 1.2, MgSO4 1.2, NaHCO3 25, KH2 PO4 1.2 and glucose 10. The medium was saturated with Carbogen at 37° C. The pH was adjusted to 7.4 NMDA and the novel preparations to be tested were dissolved in superfusion medium. The superfusion was carried out using Mg^2+ -free medium. Tritium from the dissolved sections and from the superfusate was determined by liquid scintillation counting using a Packard® 1900 CA (Frankfurt) at a 50% efficiency.
Calculation of the Results
Basal release and NMDA-stimulated release for S1 and S2 were expressed in %/min of each fraction (Limberger et al, Naunyn Schmied. Arch. Pharmacol. 339 (1988), 53-61).
The value for the stimulated release S2 /S1 was calculated for the control as 0.69±0.09. The value decreases if a substance, such as, for example, the NMDA receptor antagonist CPP (3-(+)-2-carboxypiperazin-4-ylpropyl-1-phosphonic acid) known from the literature inhibited the NMDA-stimulated release. The inhibition of the stimulated release by preparations was calculated in percent, relative to the control value, and is indicated in Table 4.

A short description of data set [4]: Toxicity (LD50) in the mouse. The settings on record: in vivo, iv. The text has this:
As the examples investigated show considerable differences in toxicity compared to the standard substances, the LD50 values are also listed in Table 6,

Data set [5] relates to CA1 pyramidal cells of the hippocampus after forebrain ischemia. The data set is described as follows: Neuroprotection after forebrain ischemia in the gerbil. The settings on record: for Cell necroses (% change) / Behavior score (% change): 15 minutes before ischemia; for Cell necroses (% change): histopathological score CA1, treated versus control group; for Behavior score (% change): treated versus control group.
Procedure: A 5-minutes' ischemia of the forebrain with subsequent recirculation is produced in 20 male Mongolian gerbils under halothane anesthesia by bilateral closure of the corotid artery by means of aneurysm clips. 7 days later, the animals are decapitated under halothane anesthesia, the brains are fixed by immersion in Carnoy solution and the extent of neuron damage in the CA1 region of the hippocampus is determined "blind" with the aid of a 5-stage histopathological score. The test substance is administered intraperitoneally or orally 15 minutes before ischemia to each group of 10 gerbils. One ischemic control group, also of 10 animals, is treated with the respective solvents per test substance.

The mark [6] stands for this setting: preparation concentration 500 μM.
Where [7] appears, read: preparation concentration 10 μM, 25 μmol/l NMDA stimulus, relative to control S2/S1, read-out: Inhibition of 3H-acetylcholine release from striatum sections, Inhibition (%).
The mark [8] stands for this setting: 50 mg/kg p.o., one hour before NMDA i.v., change compared to control group, read-out: Inhibition of convulsions.
Where [9] appears, read: read-out: Inhibition of mortality.
The mark [10] stands for this setting: preparation concentration 100 μM.
Where [11] appears, read: read-out: Inhibition of 3H-acetylcholine release from striatum sections, Inhibition (%).

`NCc1cc(C(=O)O)no1` [Example 1, 3-Carboxy-5-aminomethylisoxazole]: the “Stimulation of the 3H-D-aspartate absorption, Stimulation (%)” value (“Stimulation … (%)” below) in data set [1] (setting [6]) is listed as 15%. The inhibition in vivo at 63 mg/kg in data set [2] (63 mg/kg p.o., one hour before NMDA i.v., change compared to control group, read-out: Inhibition of convulsions) turned out to be 50%. Also, the inhibition at 10 µM in data set [3] (setting [7]) was 13%. The compound also yielded an LD50 in data set [4] greater than 200 mg/kg.

As to `CC(C)[C@H]1CC[C@H](C)C[C@@H]1OC(=O)CCc1cc(CN)on1` [Example 7, (+)-menthyl 5-aminomethylisoxazole-3-propionate toluene-4-sulfonate], in data set [3] (setting [7]), the inhibition at 10 µM worked out at 28%.

For `CC(C)[C@@H]1CC[C@@H](C)C[C@H]1OC(=O)CCc1cc(CN)on1` [Example 8, (-)-menthyl 5-aminomethylisoxazole-3-propionate toluene-4-sulfonate], the “Cell necroses (% change)” value in data set [5] (50 mg/kg p.o.) is recorded as -46 % change. The “Behavior score (% change)” value in data set [5] (50 mg/kg p.o.) came out at 0 % change. Further, in data set [1] (preparation concentration 10 μM), the “Stimulation … (%)” value worked out at 13%. Besides, the inhibition in vivo at 50 mg/kg stood at 70% in data set [2] (setting [8]) and 100% in data set [2] (setting [9]). For the same compound, the inhibition at 10 µM in data set [3] (setting [7]) came to 30%. Moreover, the LD50 in data set [4] was 50 to 100 mg/kg.

On to `NCc1cc(CCC(=O)O)no1` [Example 12, 5-Aminomethylisoxazole-3-propionic acid], for which the “Cell necroses (% change)” value in data set [5] (10 mg/kg i.p.) was -32 % change; in data set [5] (50 mg/kg p.o.) it was -14 % change. The “Behavior score (% change)” value in data set [5] (10 mg/kg i.p.) and in data set [5] (50 mg/kg p.o.) was 0 % change each time. In addition, the “Stimulation … (%)” value in data set [1] (setting [6]) worked out at 17%. The results for the inhibition in vivo at 50 mg/kg in data set [2] (setting [8]) and in data set [2] (setting [9]) were 45% and 60%, respectively. The 50% lethal dose (LD50) in data set [4] is greater than 100 mg/kg.

In the case of `CC(C)[C@@H]1CC[C@@H](C)C[C@H]1OC(=O)CCc1cc(C[N+](C)(C)C)on1` [Example 18, (-)-Menthyl 5-trimethylammoniomethylisoxazole-3-propionate iodide], in data set [5] (50 mg/kg p.o.), the “Cell necroses (% change)” value is -23 % change and the “Behavior score (% change)” value is listed as “+15 % change”. Also, the “Stimulation … (%)” value in data set [1] (setting [10]) was determined as 46%. Moreover, the inhibition at 10 µM in data set [3] (setting [7]) is 22%.

In the case of `CC(C)[C@H]1CC[C@H](C)C[C@@H]1OC(=O)CCc1cc(CNC(=O)[C@@H](N)Cc2ccccc2)on1` [Example 20, (+)-Menthyl 5-(L-phenylalanylamino)methylisoxazole-3propionate hydrochloride], the figures for the inhibition in vivo at 50 mg/kg in data set [2] (setting [8]) and in data set [2] (setting [9]) were 10% and 100%, respectively. For the same compound, the inhibition at 10 µM in data set [3] (setting [7]) was determined as 18%. For the same compound, the LD50 in data set [4] fell in the range of 25 to 50 mg/kg.

As to `COC(=O)CCc1cc(CNC(=O)[C@@H](N)Cc2ccccc2)on1.Cl` [Example 22, Methyl 5-(L-phenylalanylamino)methylisoxazole-3-propionate hydrochloride], in data set [1] (setting [10]), the “Stimulation … (%)” value came out at 23%. Besides, the inhibition at 10 µM in data set [3] (setting [7]) stood at 15%.

As for `O=C(O)CCC1=NOC(c2ccccn2)C1` (stereo not drawn) [Example 33, 3-(2-Carboxyethyl)-5-(2-pyridyl)-2-isoxazoline], the inhibition at 10 µM in data set [3] (setting [7]) was 26%.

As to `COC(=O)CCC1CC(CN)=NO1` (stereo not drawn) [Example 34, Methyl 3-aminomethyl-2-isoxazoline-5-propionate toluene-4-sulfonate], in data set [3] (setting [11]), the inhibition at 10 µM is 9%.

As to `O=C(O)C1=NOC(C(=O)O)C1` (stereo not drawn) [Example 56, 3,5-dicarboxyl-2-isoxazoline], the “Stimulation … (%)” value in data set [1] (setting [6]) came to 17%. For the same compound, the inhibition at 10 µM in data set [3] (setting [7]) came out at 11%.

With `O=C(O)CCc1cc(CO)on1` [Example 59, 5-Hydroxylmethyl-isoxazole-3-propionate sodium salt], the inhibition at 10 µM in data set [3] (setting [11]) came out at 26%.

As to `NCc1cc(=O)[nH]o1` [Muscimol, 5-(aminomethyl)-3(2H)-isoxazolone, reference compound], in data set [5] (5 mg/kg i.p.), the “Cell necroses (% change)” value is -74 % change and the “Behavior score (% change)” value is given as “+41 % change”. In addition, in data set [5] (summary of Table 7), the “post-ischemic neurological symptoms, behavior score (in words)” value is recorded as “distinctly more negative post-ischemic symptoms in the behavior score” and the “protection of cerebral nerve cells / dying cells (in words)” value is “reduction in the dying cells”. Further, the inhibition in vivo at 0.3 mg/kg in data set [2] (one hour before NMDA i.v., change compared to control group, read-out: Inhibition of convulsions) was found to be 40%. Moreover, the inhibition in vivo at 0.3 mg/kg in data set [2] (one hour before NMDA i.v., change compared to control group, read-out: Inhibition of mortality) was determined as 60%. This compound yielded an LD50 in data set [4] of 3 to 10 mg/kg.
